Reference: ChEMBL document CHEMBL5543149, “Discovery of Novel Aryl Triazolone Dihydropyridines (ATDPs) Targeting Highly Conserved Residue W229 as Promising HIV-1 NNRTIs” (J Med Chem, 2024)
In brackets after ≈: the same amount, converted by molar mass.

Assays:
[1] = AUC (0 to infinity) in Sprague-Dawley rat at 10 mg/kg, po measured upto 24 hrs by LC-MS/MS analysis; format: ADME, organism-based; conditions: in vivo
[2] = system: Human immunodeficiency virus 1; experiment: Antiviral activity against NNRTI-resistant HIV-1 harboring E138K mutant infected in human MT4 cells assessed as protection against virus-induced cytopathic effect by MTT assay; format: functional, organism-based; conditions: Human immunodeficiency virus 1, MT4
[3] = AUC (0 to infinity) in Sprague-Dawley rat at 2 mg/kg, iv measured upto 24 hrs by LC-MS/MS analysis; format: ADME, organism-based; conditions: in vivo
[4] = system: Human immunodeficiency virus 1; experiment: Antiviral activity against wild type HIV-1 infected in mouse harboring K103N mutant at 10 mg/kg, po measured for 24 hrs; format: functional, organism-based; conditions: Human immunodeficiency virus 1, 24 h
[5] = Subacute toxicity in Kunming mouse assessed as heart damage at 50 mg/kg, po administered every 2 days for 2 weeks; format: organism-based; conditions: in vivo, 336 h
[6] = Acute toxicity in Kunming mouse assessed as change in body weight at 2000 mg/kg, po measured for 7 days; format: organism-based; conditions: in vivo, 168 h, time 7 day
[7] = biological target: Human immunodeficiency virus type 1 reverse transcriptase (Human immunodeficiency virus 1, UniProt Q72547); experiment: Inhibition of wild type HIV-1 Reverse transcriptase assessed as reduction of biotin-dUTP incorporation into […] using ABTS as substrate preincubated with compound for 1 hr followed by substrate addition in presence of biotin-labeled dNTPs by ELISA analysis
[8] = system: Human immunodeficiency virus 1; experiment: Antiviral activity against wild type HIV-1 IIIB infected in human MT4 cells assessed as protection against virus-induced cytopathic effect incubated for 5 days by MTT assay; format: functional, organism-based; conditions: Human immunodeficiency virus 1, IIIB, MT4, 120 h
[9] = Subacute toxicity in Kunming mouse assessed as liver damage at 50 mg/kg, po administered every 2 days for 2 weeks; format: organism-based; conditions: in vivo, 336 h
[10] = system: Human immunodeficiency virus 1; experiment: Antiviral activity against wild type HIV-1 infected in mouse harboring L100I mutant at 10 mg/kg, po measured for 24 hrs; format: functional, organism-based; conditions: Human immunodeficiency virus 1, 24 h
[11] = Water solubility of compound at pH 7 incubated for 2 hrs by HPLC analysis; format: physicochemical
[12] = Subacute toxicity in Kunming mouse assessed as lethargy at 50 mg/kg, po administered every 2 days for 2 weeks; format: organism-based; conditions: in vivo, 336 h
[13] = system: Human immunodeficiency virus 1; experiment: Antiviral activity against wild type HIV-1 infected in mouse harboring RES056 mutant at 10 mg/kg, po measured for 24 hrs; format: functional, organism-based; conditions: Human immunodeficiency virus 1, 24 h
[14] = Clearance in Sprague-Dawley rat at 2 mg/kg, iv measured upto 24 hrs by LC-MS/MS analysis; format: ADME, organism-based; conditions: in vivo
[15] = system: Human immunodeficiency virus 1; experiment: Antiviral activity against wild type HIV-1 infected in mouse harboring […] mutant at 10 mg/kg, po measured for 24 hrs; format: functional, organism-based; conditions: Human immunodeficiency virus 1, 24 h
[16] = Subacute toxicity in Kunming mouse assessed as kidney damage at 50 mg/kg, po administered every 2 days for 2 weeks; format: organism-based; conditions: in vivo, 336 h
[17] = Subacute toxicity in Kunming mouse assessed as lung damage at 50 mg/kg, po administered every 2 days for 2 weeks; format: organism-based; conditions: in vivo, 336 h
[18] = system: Human immunodeficiency virus 1; experiment: Antiviral activity against wild type HIV-1 infected in mouse harboring E138K mutant at 10 mg/kg, po measured for 24 hrs; format: functional, organism-based; conditions: Human immunodeficiency virus 1, 24 h
[19] = system: Human immunodeficiency virus 1; experiment: Antiviral activity against NNRTI-resistant HIV-1 harboring RES056 mutant infected in human MT4 cells assessed as protection against virus-induced cytopathic effect by MTT assay; format: functional, organism-based; conditions: Human immunodeficiency virus 1, MT4
[20] = Cytotoxicity against human MT4 cells assessed as reduction in cell viability by MTT assay; format: toxicity, cell-based
[21] = Subacute toxicity in Kunming mouse assessed as clonic convulsion at 50 mg/kg, po administered every 2 days for 2 weeks; format: organism-based; conditions: in vivo, 336 h
[22] = Subacute toxicity in Kunming mouse assessed as anorexia at 50 mg/kg, po administered every 2 days for 2 weeks; format: organism-based; conditions: in vivo, 336 h
[23] = AUC (0 to t ) in Sprague-Dawley rat at 10 mg/kg, po measured upto 24 hrs by LC-MS/MS analysis; format: ADME, organism-based; conditions: in vivo
[24] = system: Human immunodeficiency virus 1; experiment: Antiviral activity against NNRTI-resistant HIV-1 harboring K103N mutant infected in human MT4 cells assessed as protection against virus-induced cytopathic effect by MTT assay; format: functional, organism-based; conditions: Human immunodeficiency virus 1, MT4
[25] = Half life in Sprague-Dawley rat at 10 mg/kg, po measured upto 24 hrs by LC-MS/MS analysis; format: ADME, organism-based; conditions: in vivo
[26] = Cmax in Sprague-Dawley rat at 10 mg/kg, po measured upto 24 hrs by LC-MS/MS analysis; format: ADME, organism-based; conditions: in vivo
[27] = Solubility of compound at pH 2 incubated for 2 hrs by HPLC analysis; format: physicochemical; conditions: buffer
[28] = AUC (0 to t ) in Sprague-Dawley rat at 2 mg/kg, iv measured upto 24 hrs by LC-MS/MS analysis; format: ADME, organism-based; conditions: in vivo
[29] = Acute toxicity in Kunming mouse assessed as behavioral abnormalities at 2000 mg/kg, po measured for 7 days; format: organism-based; conditions: in vivo, 168 h, time 7 day
[30] = system: Human immunodeficiency virus 1; experiment: Antiviral activity against wild type HIV-1 infected in mouse harboring Y181C mutant at 10 mg/kg, po measured for 24 hrs; format: functional, organism-based; conditions: Human immunodeficiency virus 1, 24 h
[31] = Half life in Sprague-Dawley rat at 2 mg/kg, iv measured upto 24 hrs by LC-MS/MS analysis; format: ADME, organism-based; conditions: in vivo
[32] = Oral bioavailability in Sprague-Dawley rat at 10 mg/kg measured upto 24 hrs by LC-MS/MS analysis; format: ADME, organism-based; conditions: in vivo
[33] = Water solubility of compound at pH 7.4 incubated for 2 hrs by HPLC analysis; format: physicochemical
[34] = Selectivity index, ratio of CC50 for cytotoxicity against human MT4 cells assessed as reduction in cell viability by MTT assay to EC50 for antiviral activity against wild type HIV-1 IIIB infected in human MT4 cells assessed as protection against virus-induced cytopathic effect; format: toxicity, cell-based; conditions: read-out: Ratio CC50/EC50
[35] = system: Human immunodeficiency virus 1; experiment: Antiviral activity against NNRTI-resistant HIV-1 harboring L100I mutant infected in human MT4 cells assessed as protection against virus-induced cytopathic effect by MTT assay; format: functional, organism-based; conditions: Human immunodeficiency virus 1, MT4
[36] = system: Human immunodeficiency virus 1; experiment: Antiviral activity against wild type HIV-1 infected in mouse at 10 mg/kg, po measured for 24 hrs; format: functional, organism-based; conditions: Human immunodeficiency virus 1, 24 h
[37] = system: Human immunodeficiency virus 1; experiment: Antiviral activity against NNRTI-resistant HIV-1 harboring Y188L mutant infected in human MT4 cells assessed as protection against virus-induced cytopathic effect by MTT assay; format: functional, organism-based; conditions: Human immunodeficiency virus 1, MT4
[38] = Tmax in Sprague-Dawley rat at 10 mg/kg, po measured upto 24 hrs by LC-MS/MS analysis; format: ADME, organism-based; conditions: in vivo
[39] = Cmax in Sprague-Dawley rat at 2 mg/kg, iv measured upto 24 hrs by LC-MS/MS analysis; format: ADME, organism-based; conditions: in vivo
[40] = Subacute toxicity in Kunming mouse assessed as spleen damage at 50 mg/kg, po administered every 2 days for 2 weeks; format: organism-based; conditions: in vivo, 336 h
[41] = system: Human immunodeficiency virus 1; experiment: Antiviral activity against NNRTI-resistant HIV-1 harboring Y181C mutant infected in human MT4 cells assessed as protection against virus-induced cytopathic effect by MTT assay; format: functional, organism-based; conditions: Human immunodeficiency virus 1, MT4
[42] = Tmax in Sprague-Dawley rat at 2 mg/kg, iv measured upto 24 hrs by LC-MS/MS analysis; format: ADME, organism-based; conditions: in vivo
[43] = Subacute toxicity in Kunming mouse assessed as ruffled fur at 50 mg/kg, po administered every 2 days for 2 weeks; format: organism-based; conditions: in vivo, 336 h

Compound: Cn1c(Cn2ccc(C(F)(F)F)c(Oc3cc(Cl)cc(-c4ccc(Br)cc4)c3)c2=O)n[nH]c1=O
- AUC(0-inf) [1]: 41800 ng·h/mL
- EC50 [2]: 0.013 µM
- AUC(0-inf) [3]: 7670 ng·h/mL
- EC50 [4]: 0.013 µM
- Activity [5]: Non-Toxic
- Activity [6]: Non-Toxic
- IC50 [7]: 0.04 µM
- EC50 [8]: 0.009 µM
- Activity [9]: Non-Toxic
- EC50 [10]: 0.011 µM
- solubility at 2 h [11]: 45.7 µg/mL (≈ 82.2 µM)
- Activity [12]: Non-Toxic
- EC50 [13]: 0.056 µM
- clearance [14]: 4.35 mL/min/kg
- EC50 [15]: 0.703 µM
- Activity [16]: Non-Toxic
- Activity [17]: Non-Toxic
- EC50 [18]: 0.013 µM
- EC50 [19]: 0.059 µM
- CC50 [20]: 118 µM
- Activity [21]: Non-Toxic
- Activity [22]: Non-Toxic
- AUC(0-t) at 24 h [23]: 39600 ng·h/mL
- EC50 [24]: 0.013 µM
- half-life [25]: 5.09 h
- Cmax [26]: 3340 ng/mL
- solubility at 2 h [27]: 107 µg/mL (≈ 193 µM)
- AUC(0-t) at 24 h [28]: 5490 ng·h/mL
- Activity [29]: Non-Toxic
- EC50 [30]: 0.016 µM
- half-life [31]: 4.49 h
- bioavailability [32]: 109%
- solubility at 2 h [33]: 32.2 µg/mL (≈ 57.9 µM)
- selectivity ratio [34]: 13100
- EC50 [35]: 0.011 µM
- EC50 [36]: 0.009 µM
- EC50 [37]: 0.703 µM
- Tmax [38]: 4 h
- Cmax [39]: 1950 ng/mL
- Activity [40]: Non-Toxic
- EC50 [41]: 0.018 µM
- Tmax [42]: 3 min
- Activity [43]: Non-Toxic
